Results taken from US20140230091A1, “MODIFIED PLANTS WITH INCREASED OIL CONTENT” (BROOKHAVEN SCIENCE ASSOCIATES, LLC, priority 2011, published 2014).

Tests used:
[1] = test system: fatty acid synthesis in B. napus cells; test: 14C-acetate / 14C-malonate labeling of lipids (feedback inhibition of fatty acid synthesis); assay type: cell-based, Brassica napus
Procedure: All radioisotopes were obtained from American Radiolabeled Chemicals (St. Louis, Mo. USA). Labeling was conducted on cells 5 days after subculturing with a culture density of ˜20 mg FW mL^−1 and that had medium refreshed 16 h prior. For labeling, three 1 mL aliquots of cells were carefully removed from each flask and were labeled with either 0.2 μCi of 1,2-^14C-acetate (50-60 mCi mmol^−1) or 2-^14C-malonate (40-60 mCi mmol^−1) for 15 minutes at 25° C. with occasional shaking. Haloxyfop (Sigma) was dissolved in DMSO and added 30 min prior to labeling. Lipids were extracted and separated by TLC as described above. Radioactivity was detected by phosphorimaging and was quantified using ImageQuant software (GE Healthcare, Piscataway, N.J., USA). Incorporation of label into individual fatty acids was determined by making FAMEs as described above, separating the methyl esters by TLC as described in (Koo, Fulda, Browse and Ohlrogge 2005, Plant J, 44, 620-632) and measuring radioactivity by phosphorimaging.
Feedback inhibition of fatty acid synthesis was measured by the addition of a ^14C-acetate tracer. […] Sterol synthesis is dependent on acetyl-CoA and ATP, both of which are required for fatty acid synthesis. Therefore, if fatty acid synthesis is inhibited due to substrate limitation; so should be sterol biosynthesis. ^14C-acetate incorporation into sterols was unaffected by Tween-80 feeding, while incorporation into free fatty acids mirrored that of total lipids (FIG. 5), showing that the effect is restricted to fatty acid synthesis. […] Three hour time points were used for the remainder of this study to separate the period of maximum feedback inhibition from any lipid homeostatic mechanisms arising from the gross fatty acid compositional changes caused by long term Tween-80 feeding.
Plants contain plastidic and cytosolic ACCase and F AS enzyme systems, both of which are capable of incorporating ^14C-acetate into fatty acids. Comparing the distribution of label in individual fatty acid species can therefore provide information on the relative contribution of these pathways. […] The degree to which ^14C-acetate incorporation is inhibited by haloxyfop is proportional to cytosolic elongation activity, whereas haloxyfop-resistant incorporation is from the de nova pathway inside the plastid.
To separate these possibilities, we exploited the fact that exogenous malonate can be converted to malonyl-CoA and used by FAS, bypassing the ACCase reaction (Kannangara et al. 1973, Plant Physiol, 52, 156-161). If ACCase is the only point of inhibition then the rate of ^14C-malonate labeling of de novo fatty acids should be the same in cultures with or without Tween-80. […] Therefore ACCase, and not F AS, is inhibited by Tween-80 feeding. When combined, the data from FIG. 6 unambiguously identify plastidic ACCase as the target of Tween-80 induced feedback inhibition.

[2] = test system: B. napus cells; test: Quantification of free fatty acid, acyl-ACP and acyl-CoA pools in cells; assay type: cell-based, Brassica napus; conditions: after three hours of Tween-80 feeding
Procedure: Free fatty acids were extracted from tissue by quenching ˜300 mg of frozen cells in 2 mL boiling isopropanol for 5 min. Once cooled, 2 mL of 0.9% NaCl was added and lipids were extracted twice with 4 mL of hexane. Neutral lipids were separated by TLC and free fatty acids were scraped, made into FAMEs, and analyzed by GC-FID or GC-MS as described above. Acyl-CoAs were extracted from ˜15 mg FW of cells and quantified as previously described (Larson and Graham 2001, Plant J, 25, 115-125). Acyl-ACPs were extracted and quantified as previously described (Kopka, Ohlrogge and Jaworski 1995, Anal Biochem, 224, 51-60) with the following modifications: 1) Internal standards used were 11:0-CoA (Sigma) and 17:0—ACP made from Spinach ACP as previously described (Broadwater and Fox 1999, Protein Expr Purif, 15, 314-326). 2) Fully dissolving TCA precipitated proteins required three extractions with MOPS buffer rather than just one.
1986 Plant Physiol, 82, 771-779). Free fatty acids can be activated by esterification to CoA or ACP before being deposited in cellular lipids. Steady state pools acyl-ACP and acyl-CoA as well as free fatty acids (FFA) were measured in cells fed Tween-80. After three hours of feeding, 18:1 FFA appeared where there was none detected in untreated cells (FIG. 9a). […] In a separate experiment designed to distinguish the incorporation of fatty acids from Tween from secondary effects of feedback inhibition, FFA and acylACPs were analyzed in cells fed ^13C-oleoyl-Tween. […] First, the in vivo concentrations of these intermediates were calculated based on the range of values in FIG. 9 and the water content of the cells. […] However, considering that acyl-ACPs are restricted to the plastid, the volume of which in developing embryos was determined to be 10% of the cell (Mansfield and Briarty 1992, Can J Bot, 70, 151-164), the estimate increased to 5-10 μM. […] Thioesterase activity was measured using the same conditions as the ACCase assay. […]

Substance: Tween-80
- reduction of incorporation of 14C-acetate into fatty acids ([1]; 3 hours of 10 mM Tween-80 feeding): 40%
- incorporation of 14C-malonate into 16 and 18 carbon fatty acids ([1]; 3 hours of 10 mM Tween-80 feeding, compared to 14C-acetate labeled controls): not inhibited
- 14C-acetate incorporation into sterols ([1]; Tween-80 feeding): unaffected
- reversibility of feedback inhibition after removal ([1]; after removal of Tween-80 following 3 hour exposure to 10 mM): completely reversible
- haloxyfop-resistant 14C-acetate incorporation ([1]; cultures with 10 mM Tween-80): reduced by about half
- Relative 14C-acetate incorporation (% control) ([1]; relative to a control sample without any Tweens, mean of three repeats ± SD): 50.9 ± 7.0 % control
- reduction of rate of 14C-acetate incorporation into lipids ([1]; three hours after addition of 10 mM Tween-80): 40%
- change in amount of 18:1-ACP and 18:1-CoA [2]: double in amount
